Laboratory results reported in paper PMC9604400, “Synthesis, Anticancer and Antitubercular Properties of New Chalcones and Their Nitrogen-Containing Five-Membered Heterocyclic Hybrids Bearing Sulfonamide Moiety” (International Journal of Molecular Sciences, 2022).
Marks after values point to notes of the source that are not given here.

Legend:
M. tuberculosis H37Rv = experiment: Checkerboard synergism assay; type: cell-based, Mycobacterium tuberculosis; details: for MIC: Mycobacterium tuberculosis, H37RV, checkerboard, alone
Procedure: The synergism assays were carried out in 96-well plates with Middlebrook 7H9 medium supplemented with OADC.

[1] = test system: 60 human cancer cell lines; experiment: NCI-60 screen (SRB), whole panel; type: cell-based; details: single dose 10 μM; for inhibition at 10 µM: Homo sapiens, mean over 60 cell lines, over 100% = cell death, read-out: Mean growth inhibition (GI) percentage
[2] = antibiotic in combination with 20a
[3] = antibiotic in combination with 20f

SMILES: COc1ccc(C(=O)/C=C/c2ccc(C)cc2)cc1S(=O)(=O)NNC(=O)c1ccncc1
- melting point: 250 to 252 °C

SMILES: COc1ccc(C2=NN(C=O)C(c3ccc(Cl)cc3)C2)cc1S(=O)(=O)Nc1cccnc1 (stereo not drawn)
- melting point: 241 to 243 °C

SMILES: COc1cc(OC)c(S(N)(=O)=O)cc1C1=NN(C=O)C(c2ccc(Cl)cc2)C1 (stereo not drawn)
- melting point: 269 to 271 °C

SMILES: COc1ccc(C2=NN(C(C)=O)C(c3ccc(Cl)cc3)C2)cc1S(N)(=O)=O (stereo not drawn)
- melting point: 229 to 232 °C

SMILES: COc1ccc(C2=NN(C=O)C(c3ccc(Cl)cc3)C2)cc1S(=O)(=O)NNC(=O)c1ccncc1 (stereo not drawn)
- melting point: 156 to 158 °C

SMILES: COc1cc(OC)c(S(=O)(=O)NNC(=O)c2ccncc2)cc1C1=NN(C=O)C(c2ccc(Cl)cc2)C1 (stereo not drawn)
- melting point: 166 to 168 °C

SMILES: COc1ccc(C2=NN(C(C)=O)C(c3ccc(Cl)cc3)C2)cc1S(=O)(=O)NNC(=O)c1ccncc1 (stereo not drawn)
- melting point: 146 to 148 °C

SMILES: COc1ccc(C2=NN(C(N)=S)C(c3ccc(Cl)cc3)C2)cc1S(=O)(=O)Nc1cccnc1 (stereo not drawn)
- melting point: 236 to 238 °C

SMILES: COc1cc(OC)c(S(=O)(=O)NNC(=O)c2ccncc2)cc1C1=NN(C(N)=S)C(c2ccc(Cl)cc2)C1 (stereo not drawn)
- melting point: 180 to 182 °C

SMILES: NCC[C@H](O)C(=O)N[C@@H]1C[C@H](N)[C@@H](O[C@H]2O[C@H](CN)[C@@H](O)[C@H](O)[C@H]2O)[C@H](O)[C@H]1O[C@H]1O[C@H](CO)[C@@H](O)[C@H](N)[C@H]1O [AMK, amikacin, reference compound]
- MIC (M. tuberculosis H37Rv): 1.5 µg/mL
- FICI Index (M. tuberculosis H37Rv; [2]): 2.00
- MIC Combination (M. tuberculosis H37Rv; [2]): 1.5 µg/mL
- FICI Index (M. tuberculosis H37Rv; [3]): 2.00
- MIC Combination (M. tuberculosis H37Rv; [3]): 1.5 µg/mL

SMILES: COc1cc(OC)c(S(N)(=O)=O)cc1C(C)=O [Compound 8b, 5-Acetyl-2,4-dimethoxybenzenesulfonamide]
- antiproliferative activity (in words) [1]: low antiproliferative activity

SMILES: COc1ccc(C(C)=O)cc1S(=O)(=O)Nc1cccnc1 [Compound 10, 5-Acetyl-2-methoxy-N-(pyridin-3-yl)benzenesulfonamide]
- inhibition at 10 µM [1]: 3.21%
- antiproliferative activity (in words) [1]: low antiproliferative activity

SMILES: COc1cc(OC)c(S(=O)(=O)N(CCCl)CCCl)cc1C(C)=O [Compound 12, 5-Acetyl-N,N-bis(2-chloroethyl)-2,4-dimethoxybenzenesulfonamide]
- antiproliferative activity (in words) [1]: low antiproliferative activity

SMILES: COc1ccc(C(C)=O)cc1S(=O)(=O)NNC(=O)c1ccncc1 [Compound 14a, 5-Acetyl-N’-isonicotinoyl-2-methoxybenzenesulfonohydrazide]
- inhibition at 10 µM [1]: 2.09%
- antiproliferative activity (in words) [1]: low antiproliferative activity

SMILES: COc1cc(OC)c(S(=O)(=O)NNC(=O)c2ccncc2)cc1C(C)=O [Compound 14b, 5-Acetyl-N’-isonicotinoyl-2,4-dimethoxybenzenesulfonohydrazide]
- antiproliferative activity (in words) [1]: low antiproliferative activity

SMILES: COc1ccc(C(=O)C=Cc2ccccc2)cc1S(=O)(=O)Nc1cccnc1 [Compound 16a, 5-Cinnamoyl-2-methoxy-N-(pyridin-3-yl)benzenesulfonamide]
- inhibition at 10 µM [1]: 16.5%
- melting point: 229 to 230 °C

SMILES: COc1ccc(C(=O)/C=C/c2ccc(Cl)cc2)cc1S(=O)(=O)Nc1cccnc1 [Compound 16b, (E)-5-(3-(4-Chlorophenyl)acryloyl)-2-methoxy-N-(pyridin-3-yl)benzenesulfonamide]
- inhibition at 10 µM [1]: 17%
- melting point: 256 to 258 °C

SMILES: COc1ccc(C(=O)/C=C/c2ccc(C)cc2)cc1S(=O)(=O)Nc1cccnc1 [Compound 16c, (E)-2-Methoxy-N-(pyridin-3-yl)-5-(3-(p-tolyl)acryloyl)benzenesulfonamide]
- inhibition at 10 µM [1]: 12.2%
- melting point: 231 to 234 °C

SMILES: COc1ccc(/C=C/C(=O)c2ccc(OC)c(S(=O)(=O)Nc3cccnc3)c2)cc1 [Compound 16d, (E)-2-Methoxy-5-(3-(4-methoxyphenyl)acryloyl)-N-(pyridin-3-yl)benzenesulfonamide]
- inhibition at 10 µM [1]: 10.2%
- melting point: 228 to 230 °C

SMILES: COc1ccc(C(=O)/C=C/c2cc(OC)c(OC)c(OC)c2)cc1S(=O)(=O)Nc1cccnc1 [Compound 16e, (E)-2-Methoxy-N-(pyridin-3-yl)-5-(3-(3,4,5-trimethoxyphenyl)acryloyl)benzenesulfonamide]
- inhibition at 10 µM [1]: 7.7%
- melting point: 239 to 241 °C

SMILES: COc1ccc(C(=O)/C=C/c2ccc3c(c2)OCO3)cc1S(=O)(=O)Nc1cccnc1 [Compound 16f, (E)-5-(3-(Benzo[d][1,3]dioxol-5-yl)acryloyl)-2-methoxy-N-(pyridin-3-yl)benzenesulfonamide]
- inhibition at 10 µM [1]: 12.9%
- melting point: 220 to 223 °C

SMILES: COc1cc(OC)c(S(=O)(=O)N(CCCl)CCCl)cc1C(=O)C=Cc1ccccc1 [Compound 18a, N,N-bis(2-chloroethyl)-5-cinnamoyl-2,4-dimethoxybenzenesulfonamide]
- melting point: 184 to 186 °C

SMILES: COc1cc(OC)c(S(=O)(=O)N(CCCl)CCCl)cc1C(=O)/C=C/c1ccc(Cl)cc1 [Compound 18b, (E)-N,N-bis(2-Chloroethyl)-5-(3-(4-chlorophenyl)acryloyl)-2,4-dimethoxybenzenesulfonamide]
- melting point: 186 to 187 °C

SMILES: COc1cc(OC)c(S(=O)(=O)N(CCCl)CCCl)cc1C(=O)/C=C/c1ccc(C)cc1 [Compound 18c, (E)-N,N-bis(2-Chloroethyl)-2,4-dimethoxy-5-(3-(p-tolyl)acryloyl)benzenesulfonamide]
- melting point: 186 to 189 °C

SMILES: COc1ccc(/C=C/C(=O)c2cc(S(=O)(=O)N(CCCl)CCCl)c(OC)cc2OC)cc1 [Compound 18d, (E)-N,N-bis(2-Chloroethyl)-2,4-dimethoxy-5-(3-(4-methoxyphenyl)acryloyl)benzenesulfonamide]
- melting point: 168 to 171 °C

SMILES: COc1cc(OC)c(S(=O)(=O)N(CCCl)CCCl)cc1C(=O)/C=C/c1ccc2c(c1)OCO2 [Compound 18f, (E)-5-(3-(Benzo[d][1,3]dioxol-5-yl)acryloyl)-N,N-bis(2-chloroethyl)-2,4-dimethoxybenzenesulfonamide]
- melting point: 193 to 196 °C

SMILES: COc1cc(OC)c(S(=O)(=O)N(CCCl)CCCl)cc1C1=NN(C=O)C(c2ccc(Cl)cc2)C1 (stereo not drawn) [Compound 22d, N,N-bis(2-Chloroethyl)-5-(5-(4-chlorophenyl)-1-formyl-4,5-dihydro-1H-pyrazol-3-yl)-2,4-dimethoxybenzenesulfonamide]
- melting point: 222 to 224 °C

SMILES: COc1cc(OC)c(S(=O)(=O)N(CCCl)CCCl)cc1C1=NN(C(N)=S)C(c2ccc(Cl)cc2)C1 (stereo not drawn) [Compound 27e, 3-(5-(N,N-bis(2-Chloroethyl)sulfamoyl)-2,4-dimethoxyphenyl)-5-(4-chlorophenyl)-4,5-dihydro-1H-pyrazole-1-carbothioamide]
- melting point: 196 to 198 °C

SMILES: C[C@H]1COc2c(N3CCN(C)CC3)c(F)cc3c(=O)c(C(=O)O)cn1c23 [Levofloxacin, levofloxacin, reference compound]
- MIC (M. tuberculosis H37Rv): 0.5 µg/mL
- FICI Index (M. tuberculosis H37Rv; [2]): 1.25
- MIC Combination (M. tuberculosis H37Rv; [2]): 0.5 µg/mL
- FICI Index (M. tuberculosis H37Rv; [3]): 1.00
- MIC Combination (M. tuberculosis H37Rv; [3]): 0.25 µg/mL

SMILES: CO[C@H]1/C=C/O[C@@]2(C)Oc3c(C)c(O)c4c(O)c(c(/C=N/N5CCN(C)CC5)c(O)c4c3C2=O)NC(=O)/C(C)=C\C=C\[C@H](C)[C@H](O)[C@@H](C)[C@@H](O)[C@@H](C)[C@H](OC(C)=O)[C@@H]1C [RIF, rifampicin, reference compound]
- MIC Combination (M. tuberculosis H37Rv; [2]): 0.048 µg/mL
- FICI Index (M. tuberculosis H37Rv; [3]): 0.37 *
- MIC Combination (M. tuberculosis H37Rv; [3]): 0.048 µg/mL
